A short description of the data set: activity coefficient (dimensionless); of the first substance listed, at infinite dilution; xn = mol fraction of the nth substance listed. Particulars: 101 kPa, Liquid, Chromatography, x1 = 0.

± gives the expanded uncertainty stated by the source.

With `Cc1ccccc1C` [1,2-dimethylbenzene] + CCCCn1cc[n+](C)c1.O=[N+]([O-])[O-], the activity coefficient is 4.31 ± 0.24 (303.15 K); 4.38 ± 0.24 (313.15 K); 4.44 ± 0.25 (323.15 K); 4.49 ± 0.25 (333.15 K); 4.54 ± 0.25 (343.15 K); 4.58 ± 0.25 (353.15 K). For the same compound, the activity coefficient (363.15 K) is 4.63 ± 0.26.

On to `Cc1cccc(C)c1` [1,3-dimethylbenzene] + CCCCn1cc[n+](C)c1.O=[N+]([O-])[O-], for which the activity coefficient (303.15 K) stood at 5.42 ± 0.3; the activity coefficient (313.15 K) amounted to 5.47 ± 0.3; the activity coefficient (323.15 K) amounted to 5.5 ± 0.3; the activity coefficient (333.15 K) was determined as 5.55 ± 0.31; the activity coefficient (343.15 K) turned out to be 5.57 ± 0.31; the activity coefficient (353.15 K) came to 5.62 ± 0.31. The activity coefficient (363.15 K) is 5.61 ± 0.31.

As for `Cc1ccc(C)cc1` [1,4-dimethylbenzene] + CCCCn1cc[n+](C)c1.O=[N+]([O-])[O-], the activity coefficient is, setting by setting: (303.15 K) 5.06 ± 0.28; (313.15 K) 5.17 ± 0.29; (323.15 K) 5.16 ± 0.29; (333.15 K) 5.22 ± 0.29; (343.15 K) 5.22 ± 0.29; (353.15 K) 5.24 ± 0.29. Further, where the note is “363.15 K”, the activity coefficient stood at 5.26 ± 0.29.

As for `CC(C)=O` [acetone] + CCCCn1cc[n+](C)c1.O=[N+]([O-])[O-], the activity coefficient (303.15 K) was 1.11 ± 0.055; the activity coefficient (313.15 K) was 1.12 ± 0.055; the activity coefficient (323.15 K) stood at 1.13 ± 0.056; the activity coefficient (333.15 K) stood at 1.16 ± 0.058; the activity coefficient (343.15 K) was 1.17 ± 0.059; the activity coefficient (353.15 K) stood at 1.23 ± 0.062. Also, under “363.15 K”, the activity coefficient is 1.25 ± 0.063.

Turning to `CC#N` [acetonitrile] + CCCCn1cc[n+](C)c1.O=[N+]([O-])[O-], the activity coefficient runs as follows: (303.15 K) 0.6 ± 0.035; (313.15 K) 0.605 ± 0.035; (323.15 K) 0.615 ± 0.035; (333.15 K) 0.62 ± 0.035; (343.15 K) 0.626 ± 0.036; (353.15 K) 0.63 ± 0.036. Moreover, the activity coefficient (363.15 K) worked out at 0.644 ± 0.036.

`c1ccccc1` [benzene] + CCCCn1cc[n+](C)c1.O=[N+]([O-])[O-]: the activity coefficient came to 1.85 ± 0.1 (303.15 K); 1.88 ± 0.1 (313.15 K); 1.91 ± 0.1 (323.15 K); 1.95 ± 0.11 (333.15 K); 2.01 ± 0.11 (343.15 K); 1.99 ± 0.11 (353.15 K). Under “363.15 K”, the activity coefficient worked out at 2.02 ± 0.11.

With `C1CCCCC1` [cyclohexane] + CCCCn1cc[n+](C)c1.O=[N+]([O-])[O-], the activity coefficient (303.15 K) came out at 29.8 ± 1.7; the activity coefficient (313.15 K) was determined as 27.6 ± 1.5; the activity coefficient (323.15 K) was determined as 25.6 ± 1.4; the activity coefficient (333.15 K) stood at 23.9 ± 1.3; the activity coefficient (343.15 K) turned out to be 22.4 ± 1.2; the activity coefficient (353.15 K) is 21.1 ± 1.2. Also, the activity coefficient (363.15 K) was 19.9 ± 1.1.

For `ClCCl` [dichloromethane] + CCCCn1cc[n+](C)c1.O=[N+]([O-])[O-], the activity coefficient worked out at 0.464 ± 0.031 (303.15 K); 0.491 ± 0.032 (313.15 K); 0.526 ± 0.033 (323.15 K); 0.552 ± 0.033 (333.15 K); 0.579 ± 0.034 (343.15 K); 0.602 ± 0.035 (353.15 K). The activity coefficient (363.15 K) is 0.64 ± 0.036.

On to `CCO` [ethanol] + CCCCn1cc[n+](C)c1.O=[N+]([O-])[O-], for which the activity coefficient reads like this: (303.15 K) 0.564 ± 0.034; (313.15 K) 0.543 ± 0.033; (323.15 K) 0.529 ± 0.033; (333.15 K) 0.52 ± 0.033; (343.15 K) 0.511 ± 0.032; (353.15 K) 0.508 ± 0.032. The activity coefficient (363.15 K) worked out at 0.507 ± 0.032.

As for `CCOC(C)=O` [ethyl acetate] + CCCCn1cc[n+](C)c1.O=[N+]([O-])[O-], the activity coefficient was found to be 2.93 ± 0.16 (303.15 K); 2.98 ± 0.17 (313.15 K); 3.01 ± 0.17 (323.15 K); 3.04 ± 0.17 (333.15 K); 3.07 ± 0.17 (343.15 K); 3.18 ± 0.18 (353.15 K). In addition, where the note is “363.15 K”, the activity coefficient was 3.25 ± 0.18.

For the compound `CCc1ccccc1` [ethylbenzene] + CCCCn1cc[n+](C)c1.O=[N+]([O-])[O-], the activity coefficient is, setting by setting: (303.15 K) 5.53 ± 0.31; (313.15 K) 5.55 ± 0.31; (323.15 K) 5.56 ± 0.31; (333.15 K) 5.56 ± 0.31; (343.15 K) 5.6 ± 0.31; (353.15 K) 5.59 ± 0.31. Besides, the activity coefficient (363.15 K) stood at 5.61 ± 0.31.

Consider `CCCCCCC` [heptane] + CCCCn1cc[n+](C)c1.O=[N+]([O-])[O-], for which the activity coefficient was found to be 105 ± 5.9 (303.15 K); 97.1 ± 5.4 (313.15 K); 89.9 ± 5 (323.15 K); 83.6 ± 4.7 (333.15 K); 78.1 ± 4.4 (343.15 K); 73.2 ± 4.1 (353.15 K). The activity coefficient (363.15 K) amounted to 68.9 ± 3.8.

As to `CCCCCC` [hexane] + CCCCn1cc[n+](C)c1.O=[N+]([O-])[O-], the activity coefficient is, setting by setting: (303.15 K) 63.9 ± 3.6; (313.15 K) 58.1 ± 3.2; (323.15 K) 53.1 ± 3; (333.15 K) 48.8 ± 2.7; (343.15 K) 45.1 ± 2.5; (353.15 K) 41.8 ± 2.3. Further, the activity coefficient (363.15 K) is 39 ± 2.2.

With `CO` [methanol] + CCCCn1cc[n+](C)c1.O=[N+]([O-])[O-], the activity coefficient was found to be 0.322 ± 0.029 (303.15 K); 0.318 ± 0.029 (313.15 K); 0.315 ± 0.029 (323.15 K); 0.31 ± 0.029 (333.15 K); 0.307 ± 0.029 (343.15 K); 0.303 ± 0.029 (353.15 K). The activity coefficient (363.15 K) came out at 0.302 ± 0.029.

In the case of `CC1CCCCC1` [methylcyclohexane] + CCCCn1cc[n+](C)c1.O=[N+]([O-])[O-], the activity coefficient (303.15 K) is 45.3 ± 2.5; the activity coefficient (313.15 K) worked out at 42.1 ± 2.4; the activity coefficient (323.15 K) was 39.4 ± 2.2; the activity coefficient (333.15 K) was determined as 37 ± 2.1; the activity coefficient (343.15 K) came out at 34.9 ± 1.9; the activity coefficient (353.15 K) came to 33 ± 1.8. Also, under “363.15 K”, the activity coefficient stood at 31.2 ± 1.7.

Take `CCCCCCCCC` [nonane] + CCCCn1cc[n+](C)c1.O=[N+]([O-])[O-]: the activity coefficient was found to be 263 ± 15 (303.15 K); 238 ± 13 (313.15 K); 218 ± 12 (323.15 K); 200 ± 11 (333.15 K); 184 ± 10 (343.15 K); 171 ± 9.6 (353.15 K). Moreover, the activity coefficient (363.15 K) amounted to 159 ± 8.9.

With `CCCCCCCC` [octane] + CCCCn1cc[n+](C)c1.O=[N+]([O-])[O-], the activity coefficient is, setting by setting: (303.15 K) 168 ± 9.4; (313.15 K) 154 ± 8.6; (323.15 K) 141 ± 7.9; (333.15 K) 131 ± 7.3; (343.15 K) 121 ± 6.8; (353.15 K) 113 ± 6.3. The activity coefficient (363.15 K) stood at 106 ± 5.9.

Regarding `CCCO` [propan-1-ol] + CCCCn1cc[n+](C)c1.O=[N+]([O-])[O-], the activity coefficient runs as follows: (303.15 K) 0.765 ± 0.04; (313.15 K) 0.732 ± 0.039; (323.15 K) 0.706 ± 0.038; (333.15 K) 0.687 ± 0.037; (343.15 K) 0.674 ± 0.037; (353.15 K) 0.662 ± 0.037. Moreover, under “363.15 K”, the activity coefficient was 0.654 ± 0.036.

As for `ClC(Cl)(Cl)Cl` [tetrachloromethane] + CCCCn1cc[n+](C)c1.O=[N+]([O-])[O-], the activity coefficient runs as follows: (303.15 K) 2.09 ± 0.12; (313.15 K) 2.17 ± 0.12; (323.15 K) 2.4 ± 0.13; (333.15 K) 2.52 ± 0.14; (343.15 K) 2.65 ± 0.15; (353.15 K) 2.81 ± 0.15. The activity coefficient (363.15 K) was found to be 2.83 ± 0.16.

As to `Cc1ccccc1` [toluene] + CCCCn1cc[n+](C)c1.O=[N+]([O-])[O-], the activity coefficient runs as follows: (303.15 K) 3.09 ± 0.17; (313.15 K) 3.15 ± 0.17; (323.15 K) 3.19 ± 0.18; (333.15 K) 3.24 ± 0.18; (343.15 K) 3.29 ± 0.18; (353.15 K) 3.33 ± 0.18. Moreover, under “363.15 K”, the activity coefficient was determined as 3.37 ± 0.19.

Regarding `ClC(Cl)Cl` [trichloromethane] + CCCCn1cc[n+](C)c1.O=[N+]([O-])[O-], the activity coefficient reads like this: (303.15 K) 0.28 ± 0.028; (313.15 K) 0.316 ± 0.029; (323.15 K) 0.334 ± 0.029; (333.15 K) 0.39 ± 0.03; (343.15 K) 0.415 ± 0.03; (353.15 K) 0.445 ± 0.031. For the same compound, the activity coefficient (363.15 K) was 0.504 ± 0.032.

The values above are taken from the NIST ThermoML archive (doi:10.1021/je200050q).
